In patent US10421765B2, “Tetrahydropyrido[4,3-d]pyrimidine inhibitors of ATR kinase” (Board of Regents, The University of Texas System, priority 2017, dated 2019) one finds IC50 data, which are given here for 16 molecules.

Like-named read-outs stand apart in the source and are kept apart here.

One test addresses ATR/ATRIP complex (Homo sapiens (Human), UniProt Q13535). Description: ATR/ATRIP enzymatic assay (Caliper-based). Conditions: FAM-labeled RAD17 peptide, ATP. In kind it is biochemical. As to the method: Human full-length FLAG-TEV-ATR and His6-ATRIP were co-expressed in HEK293 cells. The cell pellet (20 g) was harvested and lysed in 100 mL of lysis buffer (20 mM Tris-HCl pH 7.5 at room temperature, 137 mM NaCl, 10% glycerol, 1 mM DTT, 1% (v/v) Tween-20, 0.1% (v/v) NP-40, complete protease inhibitor cocktail tablets, phosphatase inhibitor cocktail tablets, 2 mM MgCl2, 0.2 mM EDTA, and 1 mM ATP). After sonication and centrifugation, the supernatant was incubated at 4° C. for 3 hours with 1 mL of anti-FLAG resin (Sigma catalog #A2220) that had been pre-equilibrated in buffer A (20 mM Tris-HCl pH 7.5 at room temperature, 137 mM NaCl, 10% glycerol, 1 mM DTT, 2 mM MgCl2, and 0.2 mM EDTA). The sample was loaded into a column, and then washed with buffer A three times. Protein was subsequently eluted with 2 ml of buffer B (buffer A+200 μg/ml 3×FLAG peptide).
The ability of new chemical matter to inhibit the ATR catalytic activity in this ATR/ATRIP complex was assessed using a Caliper-based assay. A 2x enzyme solution (i.e., 4 nM enzyme) was prepared using 1× Kinase Reaction Buffer (25 mM HEPES pH 8, 0.0055% Brij-35, 10 mM MnCl2, and 1 mM DTT). A 2x peptide solution was then prepared consisting of 10 uM FAM-labeled RAD17 peptide (GL Biochem, catalog #524315) in 1× Kinase Reaction Buffer supplemented with 2 μM ATP. 10 μL of the 2× enzyme solution was transferred to an assay plate containing 60 nL of test compound (from a 3× serial dilution) in 100% DMSO. Following a 30 minute incubation at 28° C., 10 μL of the 2× peptide solution was then transferred to the same assay plate. The reaction was allowed to incubate at 28° C. for 6 hours. After adding […] of stop buffer (100 mM HEPES pH 7.5, 0.015% Brij-35, 0.2% Coating-3 Reagent (PerkinElmer, catalog #PN760050), and 50 mM EDTA), data were collected on a Caliper instrument. Conversion values were converted to inhibition values via the following equation: % inhibition=(max−conversion)/(max−min)*100, whereby “max” corresponds to the DMSO control and “min” corresponds to the low control. IC50 values were calculated using the following equation in XLFit: Y=Bottom+(Top−Bottom)/1+(IC50/X)^HillSlope).

For test [1], the system named is ATR-driven phosphorylation of Chk1 kinase at Serine 345 in HT-29 colorectal adenocarcinoma cells. Description: pCHK1 cellular assay (CHK1 p-Ser345 AlphaScreen SureFire). Conditions: 4-nitroquinoline N-oxide 12 uM, read-out: Cell IC50 (pCHK1 IC50 values). The test is classed as cell-based. As to the method:
Inhibitors of ATR kinase are effective at inhibiting the ATR-driven phosphorylation of the downstream target Chk1 kinase at Serine 345, following the addition of 4-nitroquinoline N-oxide, a chemical used to induce DNA damage. Cellular IC50 for the inhibitors of ATR described herein were measured in HT-29 colorectal adenocarcinoma cells. HT-29 cells were routinely maintained in McCoy's 5A media (ATCC Catalog #30-2007) supplemented with 10% fetal bovine serum (Sigma Catalog #F2442) and 1× Penicillin-Streptomycin (Gibco Catalog #15140-122) using a humidified incubator (37° C., 5% CO2, and ambient O2).
In preparation for the CHK1 (p-Ser345) ALPHASCREEN® SUREFIRE® assay, cells were harvested and resuspended in McCoy's 5A media supplemented with 10% fetal bovine serum and 1× Penicillin-Streptomycin. Cells were seeded onto a 384-well black CELLSTAR® Tissue Culture Plate (VWR Catalog #89085-314) at a density of 13,000 cells/well in a volume of 40 uL. The microplate was incubated overnight (approximately 20 hours) at 37° C. with 5% CO2 and ambient O2. Stock solutions of the test compounds were prepared in 100% DMSO (Sigma, Catalog #D2650) and serially diluted 1:3 using 100% DMSO. Compounds were additionally diluted 1:33 in culture medium, and 10 ul/well were transferred to the tissue culture plate. Following the compound addition the microplate was incubated at 37° C. for 90 minutes. 10 uL of 4-nitroquinoline N-oxide (Sigma Aldrich Catalog #N8141-1G) diluted in media (final concentration 12 uM) were added to the tissue culture plate followed by a 120 minute incubation at 37° C. The cells were then washed with PBS and lysed using 10 uL/well SUREFIRE® Kit lysis buffer diluted to 1× in water (PerkinElmer Catalog #TGRCHK1S50K), with mixing on an orbital shaker at 500 rpm for 20 min at RT. Lysates were frozen at −20° C. overnight.
4 uL/well of lysate was then transferred from the tissue culture plate to a 384-well, white, low volume, PROXIPLATE™ (PerkinElmer Catalog #600828). 5 uL/well of the acceptor bead solution, prepared by diluting SUREFIRE® Kit activation buffer (PerkinElmer Catalog #TGRCHK1S50K) and ALPHASCREEN® Protein A acceptor beads (PerkinElmer Catalog #6760617R) in SUREFIRE® Kit reaction buffer (PerkinElmer Catalog #TGRCHK1S50K), were added to the lysates under subdued light and incubated at room temperature for 120 min. 2 uL/well of the donor bead solution, prepared by diluting ALPHASCREEN® Streptavidin donor beads (PerkinElmer Catalog #6760617R) in SUREFIRE® Kit dilution buffer (PerkinElmer Catalog #TGRCHK1S50K), were added under subdued light and incubated at room temperature for an addition 120 minutes. The pCHK1 ALPHASCREEN® signal was measured using an ENVISION® plate reader (PerkinElmer). IC50 values were calculated using a four-parameter logistic curve fit using Genedata Screener software. Percent of control for each compound concentration was calculated by the following formula: 100*(Compound−Min)/(Max−Min) where “Max” is the high control, DMSO, and “Min” is the low control, 5 uM ATR inhibitor.
In general terms: In Alpha technology, singlet oxygen from a donor bead excites a nearby acceptor bead.

Where [2] appears, read: read-out: ATR/ATRIP Enzyme IC50.
[3] abbreviates: Homo sapiens, HT-29, HT-29 cells.
The mark [4] stands for this setting: estimated range, read-out: ATR/ATRIP Enzyme IC50 (estimated class).

Sequence of ATR/ATRIP complex (Q13535 whole entry): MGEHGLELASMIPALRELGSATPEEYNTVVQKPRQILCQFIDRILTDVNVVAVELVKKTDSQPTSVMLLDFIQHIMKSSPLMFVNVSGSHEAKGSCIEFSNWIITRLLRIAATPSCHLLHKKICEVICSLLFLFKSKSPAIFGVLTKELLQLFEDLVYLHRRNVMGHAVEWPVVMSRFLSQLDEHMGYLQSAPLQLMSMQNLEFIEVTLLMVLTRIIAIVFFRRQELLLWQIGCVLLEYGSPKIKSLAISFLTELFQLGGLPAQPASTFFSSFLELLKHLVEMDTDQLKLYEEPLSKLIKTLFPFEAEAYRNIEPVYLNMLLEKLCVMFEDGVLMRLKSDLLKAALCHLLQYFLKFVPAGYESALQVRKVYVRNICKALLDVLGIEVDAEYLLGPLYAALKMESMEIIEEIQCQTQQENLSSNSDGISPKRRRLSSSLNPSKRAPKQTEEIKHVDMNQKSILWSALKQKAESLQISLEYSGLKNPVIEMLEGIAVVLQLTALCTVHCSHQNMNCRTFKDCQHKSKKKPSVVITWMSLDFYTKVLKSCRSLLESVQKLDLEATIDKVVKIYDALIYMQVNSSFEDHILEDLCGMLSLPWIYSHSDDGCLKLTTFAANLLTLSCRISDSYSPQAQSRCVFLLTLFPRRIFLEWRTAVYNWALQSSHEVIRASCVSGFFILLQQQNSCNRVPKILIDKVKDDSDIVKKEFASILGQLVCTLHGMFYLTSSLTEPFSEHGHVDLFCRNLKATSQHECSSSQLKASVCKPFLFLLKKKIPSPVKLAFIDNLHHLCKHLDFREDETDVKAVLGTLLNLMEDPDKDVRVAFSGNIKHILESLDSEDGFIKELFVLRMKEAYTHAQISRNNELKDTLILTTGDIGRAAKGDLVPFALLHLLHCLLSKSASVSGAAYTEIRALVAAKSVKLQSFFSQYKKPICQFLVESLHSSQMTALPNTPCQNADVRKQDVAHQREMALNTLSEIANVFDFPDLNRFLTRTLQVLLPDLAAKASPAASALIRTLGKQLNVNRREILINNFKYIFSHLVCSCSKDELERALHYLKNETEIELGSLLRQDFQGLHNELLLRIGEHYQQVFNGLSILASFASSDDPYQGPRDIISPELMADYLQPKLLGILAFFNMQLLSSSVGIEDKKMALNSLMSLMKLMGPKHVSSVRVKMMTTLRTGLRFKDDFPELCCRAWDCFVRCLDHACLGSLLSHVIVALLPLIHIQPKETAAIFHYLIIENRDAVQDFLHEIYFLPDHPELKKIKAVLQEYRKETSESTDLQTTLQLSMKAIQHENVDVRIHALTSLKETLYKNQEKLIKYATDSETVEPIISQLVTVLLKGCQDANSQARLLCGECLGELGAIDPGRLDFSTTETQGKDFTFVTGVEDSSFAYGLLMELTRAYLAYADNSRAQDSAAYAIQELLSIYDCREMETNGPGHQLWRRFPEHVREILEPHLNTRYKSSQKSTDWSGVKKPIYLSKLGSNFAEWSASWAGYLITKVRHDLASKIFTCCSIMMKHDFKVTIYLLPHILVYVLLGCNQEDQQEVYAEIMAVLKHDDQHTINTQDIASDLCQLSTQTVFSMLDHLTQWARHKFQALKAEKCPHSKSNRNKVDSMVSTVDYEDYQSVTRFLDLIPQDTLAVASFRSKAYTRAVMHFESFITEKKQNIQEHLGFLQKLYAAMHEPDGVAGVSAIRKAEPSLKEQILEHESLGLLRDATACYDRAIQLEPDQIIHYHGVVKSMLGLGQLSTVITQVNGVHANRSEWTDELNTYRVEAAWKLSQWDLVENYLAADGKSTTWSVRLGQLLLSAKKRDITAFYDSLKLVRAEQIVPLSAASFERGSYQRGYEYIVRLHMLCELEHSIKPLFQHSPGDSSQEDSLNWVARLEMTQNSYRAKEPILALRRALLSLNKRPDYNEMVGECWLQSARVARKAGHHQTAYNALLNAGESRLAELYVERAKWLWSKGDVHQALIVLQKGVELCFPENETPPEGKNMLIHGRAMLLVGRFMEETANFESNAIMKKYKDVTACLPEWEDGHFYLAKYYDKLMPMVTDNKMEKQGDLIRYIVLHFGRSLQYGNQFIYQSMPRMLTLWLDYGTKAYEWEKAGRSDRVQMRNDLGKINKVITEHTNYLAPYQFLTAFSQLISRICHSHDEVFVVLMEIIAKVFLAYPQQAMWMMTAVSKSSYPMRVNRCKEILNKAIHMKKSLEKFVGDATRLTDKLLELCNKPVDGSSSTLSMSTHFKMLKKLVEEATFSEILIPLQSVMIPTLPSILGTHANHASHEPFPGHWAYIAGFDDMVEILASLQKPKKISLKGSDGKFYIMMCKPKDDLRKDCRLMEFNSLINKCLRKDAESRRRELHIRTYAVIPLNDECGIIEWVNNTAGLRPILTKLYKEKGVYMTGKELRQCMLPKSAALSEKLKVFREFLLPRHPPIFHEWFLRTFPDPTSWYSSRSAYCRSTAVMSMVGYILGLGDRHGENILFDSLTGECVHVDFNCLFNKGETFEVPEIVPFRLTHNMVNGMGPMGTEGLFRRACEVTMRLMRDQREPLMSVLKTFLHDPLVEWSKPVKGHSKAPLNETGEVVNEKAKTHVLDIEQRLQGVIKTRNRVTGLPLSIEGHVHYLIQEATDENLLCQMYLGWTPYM
Sequence of ATR/ATRIP complex (Q8WXE1 whole entry partner): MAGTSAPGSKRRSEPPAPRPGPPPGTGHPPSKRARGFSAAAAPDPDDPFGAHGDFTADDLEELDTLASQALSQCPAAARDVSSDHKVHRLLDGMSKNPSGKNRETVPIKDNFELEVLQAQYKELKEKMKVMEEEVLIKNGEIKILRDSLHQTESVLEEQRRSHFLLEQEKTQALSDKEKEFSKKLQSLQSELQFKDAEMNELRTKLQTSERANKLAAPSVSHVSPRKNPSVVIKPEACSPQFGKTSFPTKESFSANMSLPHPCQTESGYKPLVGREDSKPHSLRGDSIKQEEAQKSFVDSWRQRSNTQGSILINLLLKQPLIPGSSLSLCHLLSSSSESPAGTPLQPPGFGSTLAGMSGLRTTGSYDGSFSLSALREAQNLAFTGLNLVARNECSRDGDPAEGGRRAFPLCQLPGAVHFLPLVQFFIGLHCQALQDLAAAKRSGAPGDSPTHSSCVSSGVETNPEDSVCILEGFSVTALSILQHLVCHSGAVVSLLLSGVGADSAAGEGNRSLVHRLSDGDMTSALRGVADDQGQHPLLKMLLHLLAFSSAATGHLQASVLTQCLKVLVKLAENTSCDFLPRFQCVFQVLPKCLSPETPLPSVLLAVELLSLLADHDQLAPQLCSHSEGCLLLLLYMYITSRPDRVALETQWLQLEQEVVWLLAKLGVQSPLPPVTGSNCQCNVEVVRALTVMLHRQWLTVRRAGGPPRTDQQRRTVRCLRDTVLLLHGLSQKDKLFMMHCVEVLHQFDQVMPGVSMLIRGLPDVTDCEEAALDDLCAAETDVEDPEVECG

With `C[C@@H]1Cc2ncnc(C3CCN(S(C)(=O)=O)CC3)c2CN1c1cc(C2CC2)nc2[nH]ccc12` [Example 95, (R)-6-(6-cyclopropyl-1H-pyrrolo[2,3-b]pyridin-4-yl)-7-methyl-4-(1-(methylsulfonyl)-piperidin-4-yl)-5,6,7,8-tetrahydropyrido[4,3-d]-pyrimidine], the IC50 on ATR/ATRIP complex (setting [2]) was found to be 270 nM; in test [1] (setting [3]) it was 54 nM.
As to `C[C@@H]1Cc2ncnc(C3CCN(S(C)(=O)=O)CC3)c2CN1c1cc(OC2CCC2)nc2[nH]ccc12` [Example 99, (R)-6-(6-cyclobutoxy-1H-pyrrolo[2,3-b]pyridin-4-yl)-7-methyl-4-(1-(methylsulfonyl)piperidin-4-yl)-5,6,7,8-tetrahydro-pyrido[4,3-d]pyrimidine], the IC50 on ATR/ATRIP complex (setting [2]) came out at 75 nM; in test [1] (setting [3]), 9 nM.
For the molecule `C[C@@H]1Cc2ncnc(C3CCN(S(C)(=O)=O)CC3)c2CN1c1ncnc2[nH]ccc12` [Example 23, 1-methanesulfonyl-4-[(7R)-7-methyl-6-{7H-pyrrolo[2,3-d]pyrimidin-4-yl}-5H,6H,7H,8H-pyrido[4,3-d]pyrimidin-4-yl]piperidine], the IC50 is 1000 to 10000 nM at ATR/ATRIP complex (setting [4]) and 611 nM in test [1] (setting [3]).
For `C[C@@H]1Cc2ncnc(N3CC[C@H](S(C)(=O)=O)C3)c2CN1c1cc(Cl)nc2[nH]ccc12` [Example 86, (R)-6-(6-chloro-1H-pyrrolo[2,3-b]pyridin-4-yl)-7-methyl-4-((S)-3-(methylsulfonyl)-pyrrolidin-1-yl)-5,6,7,8-tetrahydropyrido[4,3-d]-pyrimidine], the IC50 on ATR/ATRIP complex (setting [2]) amounted to 329 nM; in test [1] (setting [3]), 51 nM.
For the molecule `C[C@@H]1Cc2ncnc(N3CCC(S(C)(=O)=O)CC3)c2CN1c1ccnc2[nH]ccc12` [Example 88, (R)-7-methyl-4-(4-(methylsulfonyl)-piperidin-1-yl)-6-(1H-pyrrolo[2,3-b]pyridin-4-yl)-5,6,7,8-tetrahydro-pyrido[4,3-d]pyrimidine], the IC50 on ATR/ATRIP complex (setting [2]) came out at 615 nM.
Turning to `C[C@@H]1Cc2ncnc(N3CCS(=O)(=O)CC3)c2CN1c1cc(Cl)nc2[nH]ccc12` [Example 22, 4-[(7R)-6-{6-chloro-1H-pyrrolo[2,3-b]pyridin-4-yl}-7-methyl-5H,6H,7H,8H-pyrido[4,3-d]pyrimidin-4-yl]-1λ^6-thiomorpholine-1,1-dione], the IC50 on ATR/ATRIP complex (setting [4]) was 1000 to 10000 nM; in test [1] (setting [3]) it was 554 nM.
As to `C[C@@H]1Cc2ncnc(N3CCC[C@H](NS(C)(=O)=O)C3)c2CN1c1cc(Cl)nc2[nH]ccc12` [Example 71, N-((S)-1-((R)-6-(6-chloro-1H-pyrrolo[2,3-b]-pyridin-4-yl)-7-methyl-5,6,7,8-tetrahydropyrido-[4,3-d]pyrimidin-4-yl)-piperidin-3-yl)-methanesulfonamide], the IC50 at ATR/ATRIP complex (setting [2]) was determined as 73 nM; in test [1] (setting [3]), 7 nM.
Taken in the same sequence, the figures for `COC(=O)[C@H]1CCCN(c2ncnc3c2CN(c2cc(Cl)nc4[nH]ccc24)[C@H](C)C3)C1` [Example 63, Methyl (S)-1-((R)-6-(6-chloro-1H-pyrrolo[2,3-b]pyridin-4-yl)-7-methyl-5,6,7,8-tetrahydropyrido-[4,3-d]pyrimidin-4-yl)-piperidine-3-carboxylate] were 86 nM and 57 nM.
Taken in the same sequence, the figures for `C[C@@H]1Cc2ncnc(C3CCC(NS(C)(=O)=O)CC3)c2CN1c1cc(Cl)nc2[nH]ccc12` (stereo partly drawn) [Example 40, (R)-N-(4-(6-(6-chloro-1H-pyrrolo[2,3-b]pyridin-4-yl)-7-methyl-5,6,7,8-tetrahydropyrido[4,3-d]pyrimidin-4-yl)cyclohexyl)methane-sulfonamide] were 899 nM and 24 nM.
Turning to `C[C@@H]1Cc2ncnc(C3CCN(S(C)(=O)=O)CC3)c2CN1c1cc(Cl)nc2[nH]ccc12` [Example 7, (R)-6-(6-Chloro-1H-pyrrolo[2,3-b]pyridin-4-yl)-7-methyl-4-(1-(methylsulfonyl)-piperidin-4-yl)-5,6,7,8-tetrahydropyrido[4,3-d]pyrimidine bis(trifluoroacetate)], the IC50 on ATR/ATRIP complex (setting [2]) came out at 163 nM; in test [1] (setting [3]), 32 nM.
As for `C[C@@H]1Cc2ncnc([C@H]3CCCN(S(C)(=O)=O)C3)c2CN1c1cc(Cl)nc2[nH]ccc12` (single isomer, unassigned) [Example 51b], the IC50 in test [1] (HT-29 cells) was 48 nM.
Consider `C[C@@H]1Cc2ncnc([C@@H]3CCCN(S(C)(=O)=O)C3)c2CN1c1cc(Cl)nc2[nH]ccc12` (single isomer, unassigned) [Example 51a], for which, in test [1] (HT-29 cells), the IC50 was found to be 11 nM.
As to `C[C@@H]1Cc2ncnc(C3CCN(S(C)(=O)=O)CC3)c2CN1c1ncnc2[nH]ccc12` [Example 43, (R)-7-methyl-4-(1-(methylsulfonyl)piperidin-4-yl)-6-(7H-pyrrolo[2,3-d]pyrimidin-4-yl)-5,6,7,8-tetrahydropyrido[4,3-d] pyrimidine], the IC50 at ATR/ATRIP complex (setting [4]) was 1000 to 10000 nM.
Take `C[C@@H]1Cc2ncnc(N3CC(S(C)(=O)=O)C3)c2CN1c1ccnc2[nH]ccc12` [Example 36, 3-methanesulfonyl-1-[(7R)-7-methyl-6-{1H-pyrrolo[2,3-b]pyridin-4-yl}-5H,6H,7H,8H-pyrido[4,3-d]pyrimidin-4-yl]azetidine]: the IC50 in test [1] (setting [3]) is 128 nM.
Consider `C[C@@H]1Cc2ncnc(N3C[C@H]4CC[C@@H](C3)[C@H]4NS(C)(=O)=O)c2CN1c1cc(Cl)nc2[nH]ccc12` [Example 39, N-((1R,5S)-(8-syn)-3-((R)-6-(6-chloro-1H-pyrrolo[2,3-b]pyridin-4-yl)-7-methyl-5,6,7,8-tetrahydropyrido[4,3-d]pyrimidin-4-yl)-3-azabicyclo[3.2.1]octan-8-yl)methanesulfonamide], for which, in test [1] (setting [3]), the IC50 is 27 nM.
As to `C[C@@H]1Cc2ncnc(N3CC(NS(C)(=O)=O)C3)c2CN1c1cc(Cl)nc2[nH]ccc12` [Example 35, N-{1-[(7R)-6-{6-chloro-1H-pyrrolo[2,3-b]pyridin-4-yl}-7-methyl-5H,6H,7H,8H-pyrido[4,3-d]pyrimidin-4-yl]azetidin-3-yl}methanesulfonamide], the IC50 in test [1] (setting [3]) was 34 nM.
